In patent US20250145606A1 (Arcus Biosciences, Inc., priority 2023, published 2025):
pIC50: −log10 of the molar value.

Legend:
[1] = target: c-Kit (Homo sapiens (Human), UniProt P10721); experiment: Inhibition of c-Kit kinase activity (HTRF KinEASE-TK); type: biochemical; settings: biochemical, HTRF KinEASE-TK
Method in brief: (§1)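 Human kinases were preincubated 1 h at rt with a 22-point 1:2 compound titration, then run 120 min at rt with biotinylated TK peptide and ATP (2× mix: c-Kit 16 μM, PDGFRα 1 μM, PDGFRβ 40 μM, CSF1R 20 μM). Phosphopeptide was read by HTRF TR-FRET (665/620 nm), and IC50s came from 4-parameter fits.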

[2] = target: PDGFRα (Homo sapiens (Human), UniProt P16234); experiment: Inhibition of PDGFRα kinase activity (HTRF KinEASE-TK); settings: biochemical, HTRF KinEASE-TK
PDGFRα, sequence (P16234 24-1089): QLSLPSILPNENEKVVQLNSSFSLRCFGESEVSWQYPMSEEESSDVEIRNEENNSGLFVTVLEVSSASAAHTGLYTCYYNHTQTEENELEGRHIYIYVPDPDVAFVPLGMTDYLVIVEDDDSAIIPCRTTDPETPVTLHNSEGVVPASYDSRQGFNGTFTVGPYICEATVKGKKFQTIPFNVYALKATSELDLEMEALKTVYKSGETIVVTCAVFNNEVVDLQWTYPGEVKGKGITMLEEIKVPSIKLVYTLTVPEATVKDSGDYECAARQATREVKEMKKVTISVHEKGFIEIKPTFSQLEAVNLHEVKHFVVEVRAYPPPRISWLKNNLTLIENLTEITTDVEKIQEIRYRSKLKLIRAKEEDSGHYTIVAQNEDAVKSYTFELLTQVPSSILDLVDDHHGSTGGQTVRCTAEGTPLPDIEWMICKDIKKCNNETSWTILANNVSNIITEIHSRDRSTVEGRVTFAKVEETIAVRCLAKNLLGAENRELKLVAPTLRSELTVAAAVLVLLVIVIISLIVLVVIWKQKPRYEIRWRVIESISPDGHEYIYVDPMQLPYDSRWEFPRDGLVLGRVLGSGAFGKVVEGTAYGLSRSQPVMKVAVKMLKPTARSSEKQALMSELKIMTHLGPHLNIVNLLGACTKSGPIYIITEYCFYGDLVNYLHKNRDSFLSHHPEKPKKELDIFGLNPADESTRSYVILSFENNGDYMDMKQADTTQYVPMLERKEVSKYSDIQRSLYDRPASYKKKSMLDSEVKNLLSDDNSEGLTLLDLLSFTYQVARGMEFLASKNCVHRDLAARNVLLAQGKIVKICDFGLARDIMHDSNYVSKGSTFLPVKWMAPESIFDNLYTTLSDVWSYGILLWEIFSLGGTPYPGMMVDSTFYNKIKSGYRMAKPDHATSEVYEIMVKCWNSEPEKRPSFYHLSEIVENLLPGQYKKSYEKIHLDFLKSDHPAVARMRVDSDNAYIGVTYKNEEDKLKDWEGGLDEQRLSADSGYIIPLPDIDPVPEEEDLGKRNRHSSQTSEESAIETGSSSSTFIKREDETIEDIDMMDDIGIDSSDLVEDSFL
Method in brief: as §1

[3] = target: PDGFRβ (Homo sapiens (Human), UniProt P09619); experiment: Inhibition of PDGFRβ kinase activity (HTRF KinEASE-TK); settings: biochemical, HTRF KinEASE-TK
PDGFRβ, sequence (P09619 33-1106): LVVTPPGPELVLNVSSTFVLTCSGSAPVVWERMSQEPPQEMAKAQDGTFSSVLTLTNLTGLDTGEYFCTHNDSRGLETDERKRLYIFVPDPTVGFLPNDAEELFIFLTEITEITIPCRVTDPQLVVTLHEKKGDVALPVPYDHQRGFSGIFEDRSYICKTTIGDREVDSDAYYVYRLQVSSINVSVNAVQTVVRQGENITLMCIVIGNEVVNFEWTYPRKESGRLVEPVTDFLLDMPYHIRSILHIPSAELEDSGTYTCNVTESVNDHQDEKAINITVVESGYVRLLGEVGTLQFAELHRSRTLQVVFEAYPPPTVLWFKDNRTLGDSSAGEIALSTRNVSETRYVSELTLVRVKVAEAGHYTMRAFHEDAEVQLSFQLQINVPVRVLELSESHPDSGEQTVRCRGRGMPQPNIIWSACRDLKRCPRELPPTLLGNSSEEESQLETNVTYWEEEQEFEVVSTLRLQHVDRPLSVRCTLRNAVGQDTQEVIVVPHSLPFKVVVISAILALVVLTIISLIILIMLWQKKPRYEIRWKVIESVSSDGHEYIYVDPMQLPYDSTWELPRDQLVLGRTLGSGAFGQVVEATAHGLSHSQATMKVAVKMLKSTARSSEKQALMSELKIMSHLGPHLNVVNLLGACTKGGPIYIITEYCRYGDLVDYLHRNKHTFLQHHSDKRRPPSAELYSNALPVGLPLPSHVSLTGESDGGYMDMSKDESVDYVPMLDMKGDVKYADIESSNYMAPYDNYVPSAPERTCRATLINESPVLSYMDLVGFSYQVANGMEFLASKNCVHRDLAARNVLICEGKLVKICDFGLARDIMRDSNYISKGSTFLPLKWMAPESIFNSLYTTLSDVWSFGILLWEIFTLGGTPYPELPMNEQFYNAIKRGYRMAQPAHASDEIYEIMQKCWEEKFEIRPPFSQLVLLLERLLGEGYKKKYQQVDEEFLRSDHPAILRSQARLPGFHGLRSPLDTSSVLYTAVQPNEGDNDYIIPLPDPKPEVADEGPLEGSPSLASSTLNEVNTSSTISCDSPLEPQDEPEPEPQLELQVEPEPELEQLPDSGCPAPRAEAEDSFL
Method in brief: as §1

[4] = target: CSF1R (Homo sapiens (Human), UniProt P07333); experiment: Inhibition of CSF1R kinase activity (HTRF KinEASE-TK); settings: biochemical, HTRF KinEASE-TK
CSF1R, sequence (P07333 20-972): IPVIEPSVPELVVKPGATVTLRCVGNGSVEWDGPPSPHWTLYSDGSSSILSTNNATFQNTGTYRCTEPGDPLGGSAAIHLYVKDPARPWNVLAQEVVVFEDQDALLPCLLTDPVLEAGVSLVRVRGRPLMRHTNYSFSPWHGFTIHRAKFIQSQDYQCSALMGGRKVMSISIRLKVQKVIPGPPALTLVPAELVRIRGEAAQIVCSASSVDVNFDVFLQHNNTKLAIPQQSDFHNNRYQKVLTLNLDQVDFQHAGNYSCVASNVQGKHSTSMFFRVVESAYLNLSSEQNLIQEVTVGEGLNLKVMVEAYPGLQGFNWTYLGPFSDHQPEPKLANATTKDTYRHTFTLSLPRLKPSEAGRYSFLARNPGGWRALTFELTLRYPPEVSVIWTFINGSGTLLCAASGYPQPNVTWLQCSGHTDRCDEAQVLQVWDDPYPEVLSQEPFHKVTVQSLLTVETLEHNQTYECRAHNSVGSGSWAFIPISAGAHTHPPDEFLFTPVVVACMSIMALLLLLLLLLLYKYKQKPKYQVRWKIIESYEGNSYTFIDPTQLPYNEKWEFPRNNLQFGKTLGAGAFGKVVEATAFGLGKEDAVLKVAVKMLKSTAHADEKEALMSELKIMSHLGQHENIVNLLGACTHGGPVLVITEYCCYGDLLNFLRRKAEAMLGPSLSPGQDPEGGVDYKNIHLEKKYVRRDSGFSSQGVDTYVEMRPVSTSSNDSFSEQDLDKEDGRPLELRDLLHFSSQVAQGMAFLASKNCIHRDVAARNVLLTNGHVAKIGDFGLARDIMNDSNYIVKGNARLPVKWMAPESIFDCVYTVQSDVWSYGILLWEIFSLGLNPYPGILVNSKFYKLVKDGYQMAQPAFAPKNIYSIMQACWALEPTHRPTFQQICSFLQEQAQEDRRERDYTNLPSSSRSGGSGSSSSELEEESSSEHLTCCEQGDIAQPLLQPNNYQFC
Method in brief: as §1

[5] = target: FLT3 (Homo sapiens (Human), UniProt P36888); experiment: Inhibition of FLT3 kinase activity (HTRF KinEASE-TK); type: biochemical; settings: biochemical, HTRF KinEASE-TK
FLT3, sequence (P36888 27-993): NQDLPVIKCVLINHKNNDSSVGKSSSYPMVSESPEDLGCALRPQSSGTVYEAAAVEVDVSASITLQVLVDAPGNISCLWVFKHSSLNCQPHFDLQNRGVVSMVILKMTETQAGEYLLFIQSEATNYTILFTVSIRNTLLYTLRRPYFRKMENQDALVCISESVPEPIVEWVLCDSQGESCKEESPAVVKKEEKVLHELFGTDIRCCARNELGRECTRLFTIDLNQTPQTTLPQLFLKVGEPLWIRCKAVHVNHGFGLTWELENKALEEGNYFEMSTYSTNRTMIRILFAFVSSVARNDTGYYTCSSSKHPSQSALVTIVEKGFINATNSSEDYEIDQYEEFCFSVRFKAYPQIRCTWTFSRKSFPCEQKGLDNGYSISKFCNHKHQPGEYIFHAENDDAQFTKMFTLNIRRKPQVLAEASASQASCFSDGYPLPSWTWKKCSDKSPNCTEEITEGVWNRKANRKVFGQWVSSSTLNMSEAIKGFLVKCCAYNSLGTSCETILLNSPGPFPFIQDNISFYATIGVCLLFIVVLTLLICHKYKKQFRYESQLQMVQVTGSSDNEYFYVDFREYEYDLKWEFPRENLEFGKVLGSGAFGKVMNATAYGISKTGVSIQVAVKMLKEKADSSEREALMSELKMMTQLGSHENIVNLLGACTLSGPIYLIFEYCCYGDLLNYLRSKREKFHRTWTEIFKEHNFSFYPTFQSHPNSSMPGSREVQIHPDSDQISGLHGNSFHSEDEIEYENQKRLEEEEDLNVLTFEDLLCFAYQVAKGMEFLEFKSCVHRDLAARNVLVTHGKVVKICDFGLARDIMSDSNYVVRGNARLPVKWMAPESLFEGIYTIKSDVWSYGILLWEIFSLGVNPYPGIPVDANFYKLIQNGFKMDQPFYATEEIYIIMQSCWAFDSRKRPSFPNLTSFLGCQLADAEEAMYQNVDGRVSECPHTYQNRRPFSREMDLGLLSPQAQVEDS
Method in brief: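 FLT3 tyrosine kinase activity was measured with the HTRF KinEASE-TK kit by following phosphorylation of a biotinylated TK peptide. After the 45 min reaction, 10 μL of detection mix was added: 0.2 μM (2×) Streptavidin-XL665 and 2 μM (2×) TK-Antibody-Cryptate in detection buffer. After 60 min, TR-FRET was read on an Envision as the 665 nm/620 nm emission ratio with 320 nm excitation.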

[6] = tested on: Phospho-KIT (Y703) in M07e cells; experiment: Phospho-KIT (Y703) cellular assay in M07e cells; type: cell-based; settings: M-07e; Phospho-KIT (Y703), M07e cells; read-out: M07e Cell IC50
Method in brief: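 Serum-starved M07e cells preincubated 50 min at 37° C with 11-point half-log compound titration, then stimulated 10 min with SCF at 90.9 ng/mL final. Fixed, permeabilized cells stained for phospho-KIT Y703 and read by flow cytometry (live-gated geometric mean); IC50 by 4-parameter fit normalized to DMSO and positive control.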

c-Kit, sequence (P10721 26-976): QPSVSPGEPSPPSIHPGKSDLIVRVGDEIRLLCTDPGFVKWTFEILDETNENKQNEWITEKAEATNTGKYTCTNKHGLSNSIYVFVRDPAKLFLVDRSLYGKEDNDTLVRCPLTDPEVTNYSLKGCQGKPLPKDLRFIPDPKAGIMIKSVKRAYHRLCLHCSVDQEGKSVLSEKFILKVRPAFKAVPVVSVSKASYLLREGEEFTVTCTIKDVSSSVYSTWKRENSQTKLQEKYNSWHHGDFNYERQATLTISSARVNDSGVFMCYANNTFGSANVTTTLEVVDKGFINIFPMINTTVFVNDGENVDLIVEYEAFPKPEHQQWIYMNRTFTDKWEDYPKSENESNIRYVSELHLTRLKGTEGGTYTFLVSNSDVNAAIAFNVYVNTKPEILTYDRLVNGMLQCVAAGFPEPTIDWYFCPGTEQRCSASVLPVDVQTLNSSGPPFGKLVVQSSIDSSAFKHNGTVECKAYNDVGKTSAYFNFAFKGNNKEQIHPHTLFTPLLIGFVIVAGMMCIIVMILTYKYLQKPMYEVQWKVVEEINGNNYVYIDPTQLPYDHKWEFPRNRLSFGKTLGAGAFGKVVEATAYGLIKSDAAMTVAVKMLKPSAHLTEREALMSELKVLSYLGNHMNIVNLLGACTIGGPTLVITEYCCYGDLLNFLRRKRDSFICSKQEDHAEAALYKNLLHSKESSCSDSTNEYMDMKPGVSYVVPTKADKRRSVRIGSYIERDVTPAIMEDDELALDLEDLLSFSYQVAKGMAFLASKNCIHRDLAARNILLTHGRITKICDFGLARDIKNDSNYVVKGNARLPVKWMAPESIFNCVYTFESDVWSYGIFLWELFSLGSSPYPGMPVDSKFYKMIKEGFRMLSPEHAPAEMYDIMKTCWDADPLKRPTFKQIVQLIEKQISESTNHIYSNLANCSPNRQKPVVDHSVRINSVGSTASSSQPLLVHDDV

Row | pIC50 [1] | pIC50 [2] | pIC50 [3] | pIC50 [4] | pIC50 [5] | pIC50 [6] | SMILES
1 | > 7.00 | < 6.00 | < 6.00 | < 6.00 | < 6.00 | 6.00 to 7.00 | Cc1cc(F)c(C(=O)N[C@H]2CCOC2)cc1NC(=O)c1cnc(N)s1 [Example 194, 2-Amino-N-[4-fluoro-2-methyl-5-[[(3S)-oxolan-3-yl]carbamoyl]phenyl]-1,3-thiazole-5-carboxamide]
2 | > 7.00 | < 6.00 | < 6.00 | < 6.00 | < 6.00 | > 7.00 | Cc1ccc(NC(=O)c2cc(NC(=O)c3cnc(N)s3)c(C)cc2F)nc1 [Example 133, 2-Amino-N-[4-fluoro-2-methyl-5-[(5-methylpyridin-2-yl)carbamoyl]phenyl]-1,3-thiazole-5-carboxamide]
3 | > 7.00 | < 6.00 | 6.00 to 7.00 | < 6.00 | < 6.00 | > 7.00 | Cc1cc(F)c(C(=O)Nc2ccn(CC(F)F)n2)cc1NC(=O)c1cnc(N)s1 [Example 148, 2-Amino-N-[5-[[1-(2,2-difluoroethyl)pyrazol-3-yl]carbamoyl]-4-fluoro-2-methylphenyl]-1,3-thiazole-5-carboxamide]
4 | > 7.00 | < 6.00 | < 6.00 | < 6.00 | < 6.00 | > 7.00 | Cc1cc(F)c(C(=O)N[C@H]2C[C@@H](F)C2)cc1NC(=O)c1cnc(N)s1 [Example 124, 2-Amino-N-[4-fluoro-5-[(3-fluorocyclobutyl)carbamoyl]-2-methylphenyl]-1,3-thiazole-5-carboxamide]
5 | > 7.00 | < 6.00 | < 6.00 | < 6.00 | < 6.00 | > 7.00 | Cc1cc(F)c(C(=O)Nc2ccn(C3CC3)n2)cc1NC(=O)c1cnc(N)s1 [Example 159, 2-Amino-N-[5-[(1-cyclopropylpyrazol-3-yl)carbamoyl]-4-fluoro-2-methylphenyl]-1,3-thiazole-5-carboxamide]

Continued, compound first:

Row | SMILES | pIC50 [1] | pIC50 [2] | pIC50 [3] | pIC50 [4] | pIC50 [5] | pIC50 [6]
6 | Nc1ncc(C(=O)Nc2cc(C(=O)Nc3ccc(OCC(F)(F)F)cn3)c(F)cc2F)s1 [Example 220, 2-Amino-N-[2,4-difluoro-5-[[5-(2,2,2-trifluoroethoxy)pyridin-2-yl]carbamoyl]phenyl]-1,3-thiazole-5-carboxamide] | > 7.00 | < 6.00 | < 6.00 | < 6.00 | < 6.00 | > 7.00
7 | COc1ccc(NC(=O)c2cc(NC(=O)c3cnc(N)s3)c(C)cc2F)cc1 [Example 230, 2-Amino-N-[4-fluoro-5-[(4-methoxyphenyl)carbamoyl]-2-methylphenyl]-1,3-thiazole-5-carboxamide] | > 7.00 | 6.00 to 7.00 | 6.00 to 7.00 | 6.00 to 7.00 | < 6.00 | > 7.00
8 | Nc1ncc(C(=O)Nc2cc(C(=O)Nc3cnc(C4CC4)nc3)c(F)cc2Cl)s1 [Example 204, 2-Amino-N-[2-chloro-5-[(2-cyclopropylpyrimidin-5-yl)carbamoyl]-4-fluorophenyl]-1,3-thiazole-5-carboxamide] | > 7.00 | 6.00 to 7.00 | 6.00 to 7.00 | 6.00 to 7.00 | < 6.00 | > 7.00
9 | CNc1ncc(C(=O)Nc2cc(C(=O)Nc3ccc(OC4CC4)cn3)c(F)cc2C)s1 [Example 241, N-[5-[(5-cyclopropyloxypyridin-2-yl)carbamoyl]-4-fluoro-2-methylphenyl]-2-(methylamino)-1,3-thiazole-5-carboxamide] | > 7.00 | < 6.00 | < 6.00 | < 6.00 | < 6.00 | > 7.00
10 | Cc1cc(F)c(C(=O)Nc2ccc(COC(C)C)cn2)cc1NC(=O)c1cnc(N)s1 [Example 195, 2-Amino-N-[4-fluoro-2-methyl-5-[[5-(propan-2-yloxymethyl)pyridin-2-yl]carbamoyl]phenyl]-1,3-thiazole-5-carboxamide] | > 7.00 | < 6.00 | < 6.00 | < 6.00 | 6.00 to 7.00 | > 7.00
